Data as given in ChEMBL document CHEMBL1201862, “PubChem BioAssay data set” (2004).
The source made the active and inactive calls. Rule as the data show it, for most assays here: actives have a measured EC50 and inactives only a lower limit.

Tests used:
[1] = inhibitors of firefly luciferase expression or activity, dose response, H4 neuroglioma cells, luminescence (AID 1990); type: functional, cell-based
[2] = luciferase reporter signal reduction – luminescence, H4-C neuroglioblastoma cells, dose response (AID 2458); type: functional, cell-based;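 also: H4 neuroglioblastoma cells stably carrying a luciferase reporter gene fusion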
BJ [3] = experiment: cytotoxicity toward BJ-TERT fibroblasts, dose response, cell-based, RAS-independent, luminescence (AID 1933); type: functional; settings: Homo sapiens
cells [4] = type: functional, cell-based
[5] = inhibitors of SNCA 5'UTR-driven reporter translation, confirmation, H4 neuroglioma cells, luminescence (AID 1988); type: functional, cell-based
BJ [6] = experiment: cells; type: functional, cell-based; settings: Homo sapiens
BJ [7] = experiment: cytotoxicity toward BJ-TERT-LT-ST fibroblasts, dose response, cell-based, RAS-independent, luminescence (AID 1935); type: functional; settings: Homo sapiens;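 also: BJ fibroblasts immortalized with TERT plus LT and ST oncogenes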
[8] = cytotoxicity toward DRD oncogenic fibroblasts, dose response, cell-based, non-viral oncogenic, luminescence (AID 1934); type: functional; settings: Homo sapiens
[9] = inhibitors of SNCA 5'UTR-driven translation, confirmation, luminescence, H4 neuroglioblastoma cells, dose confirmation (AID 2454); type: functional, cell-based;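 also: H4 neuroglioblastoma cells carrying an alpha-synuclein 5'UTR luciferase reporter; potency for inhibition of the luciferase signal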
Jurkat = experiment: antigen receptor-induced NF-kB inhibitors, dose response, Jurkat, luciferase reporter, luminescence, B- and T-cell (AID 489004); type: functional, cell-based; settings: Homo sapiens;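 also: NF-kB luciferase reporter Jurkat cells stimulated with PMA plus ionomycin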
[10] = cytotoxicity in HEK-293T NF-kB-Luc cells, dose response, cytotoxicity control for B/T-cell NF-kB inhibitor project, cell-based, uHTS hits (AID 489019); type: functional;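 also: IC50 reflects cytotoxicity as loss of cell viability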
Paired box protein Pax-8 = Paired box protein Pax-8 (Homo sapiens, UniProt Q06710); experiment: inhibitors of PAX8-driven TPO luciferase reporter, dose response, RMG-I cells, cherry-pick (AID 687027); type: functional, cell-based;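 also: luciferase reporter driven by Pax8 target thyroperoxidase promoter measured by SteadyGlo luminescence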
Cytochrome P450 1A2 = biological target: T1, Cytochrome P450 1A2 (Homo sapiens, UniProt P05177);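 also: PubChem cytochrome P450 panel assay, CYP1A2 panel member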
T1 sequence (P05177 whole entry): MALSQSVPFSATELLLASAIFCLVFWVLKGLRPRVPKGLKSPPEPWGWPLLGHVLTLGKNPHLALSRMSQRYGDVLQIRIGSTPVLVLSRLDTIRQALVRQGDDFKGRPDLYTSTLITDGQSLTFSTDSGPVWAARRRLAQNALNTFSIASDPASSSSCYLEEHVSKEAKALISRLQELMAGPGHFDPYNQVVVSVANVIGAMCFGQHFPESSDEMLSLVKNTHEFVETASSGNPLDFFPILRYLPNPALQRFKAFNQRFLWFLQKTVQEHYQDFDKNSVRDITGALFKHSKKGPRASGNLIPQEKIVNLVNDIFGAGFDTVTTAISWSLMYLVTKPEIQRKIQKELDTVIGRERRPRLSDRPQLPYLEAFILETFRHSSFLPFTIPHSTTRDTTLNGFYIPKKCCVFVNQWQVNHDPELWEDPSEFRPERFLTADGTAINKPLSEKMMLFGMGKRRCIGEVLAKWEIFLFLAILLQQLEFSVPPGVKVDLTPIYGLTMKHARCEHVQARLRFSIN

ORF 73 = biological target: T2, ORF 73 (Human herpesvirus 8, UniProt O40947); experiment: inhibitors of C-LANA binding to LBS DNA, dose response, biochemical, fluorescence polarization, cherry-picked samples (AID 504725); parameters: species or system Human gammaherpesvirus 8;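 also: fluorescence polarization of a labeled DNA duplex reporting LANA DNA binding; potency is for inhibitors that block LANA binding to the DNA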
T2 sequence (O40947 whole entry): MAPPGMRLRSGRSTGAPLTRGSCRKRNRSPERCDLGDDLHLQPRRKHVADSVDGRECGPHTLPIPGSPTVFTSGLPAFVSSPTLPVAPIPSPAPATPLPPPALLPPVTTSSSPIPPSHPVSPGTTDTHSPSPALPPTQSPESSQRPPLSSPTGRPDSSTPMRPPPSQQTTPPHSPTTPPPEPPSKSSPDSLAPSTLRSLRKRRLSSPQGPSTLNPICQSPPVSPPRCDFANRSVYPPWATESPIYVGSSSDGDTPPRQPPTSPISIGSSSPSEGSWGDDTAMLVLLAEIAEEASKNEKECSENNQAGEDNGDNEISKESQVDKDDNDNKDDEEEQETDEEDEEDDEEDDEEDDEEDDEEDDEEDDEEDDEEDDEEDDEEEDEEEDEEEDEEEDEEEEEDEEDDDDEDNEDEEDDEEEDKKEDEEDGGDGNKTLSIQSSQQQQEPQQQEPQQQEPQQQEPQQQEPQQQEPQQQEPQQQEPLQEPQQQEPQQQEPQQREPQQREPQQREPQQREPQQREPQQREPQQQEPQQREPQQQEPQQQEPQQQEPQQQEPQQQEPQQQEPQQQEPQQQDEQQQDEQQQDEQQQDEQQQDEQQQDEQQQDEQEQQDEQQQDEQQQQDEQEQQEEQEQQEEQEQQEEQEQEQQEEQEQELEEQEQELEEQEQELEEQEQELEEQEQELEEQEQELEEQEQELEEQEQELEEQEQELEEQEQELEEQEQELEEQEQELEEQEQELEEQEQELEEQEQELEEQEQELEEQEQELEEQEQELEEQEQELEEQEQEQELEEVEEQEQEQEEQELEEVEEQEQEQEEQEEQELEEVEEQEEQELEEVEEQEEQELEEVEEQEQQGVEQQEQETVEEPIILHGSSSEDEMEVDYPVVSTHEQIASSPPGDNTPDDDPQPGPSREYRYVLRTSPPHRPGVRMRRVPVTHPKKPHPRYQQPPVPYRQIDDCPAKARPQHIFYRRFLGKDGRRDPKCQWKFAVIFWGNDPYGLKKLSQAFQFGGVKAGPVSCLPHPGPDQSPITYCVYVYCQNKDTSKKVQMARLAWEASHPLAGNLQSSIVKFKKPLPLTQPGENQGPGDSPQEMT

Keap1/Nrf2 = Keap1/Nrf2 (Homo sapiens, UniProt Q14145); experiment: Keap1-Nrf2 protein-protein interaction inhibitors, dose response, biochemical, fluorescence polarization, cherry-picked samples (AID 588683)
[11] = biological target: Beta-adrenergic receptor kinase 1 (Homo sapiens, UniProt P25098); experiment: GRK2 inhibitors displacing RNA aptamer, dose response, biochemical, flow cytometry beads, FAM-aptamer, powder set 1 (AID 588720)
[12] = biological target: T3, Carboxy-terminal domain RNA polymerase II polypeptide A small phosphatase 1 (Homo sapiens, UniProt Q9GZU7); experiment: inhibitors of CTDSP1, concentration-response testing, biochemical assay, absorbance-based, actives from ultra-high-throughput screening (AID 540297); type: functional
T3 sequence (Q9GZU7 whole entry): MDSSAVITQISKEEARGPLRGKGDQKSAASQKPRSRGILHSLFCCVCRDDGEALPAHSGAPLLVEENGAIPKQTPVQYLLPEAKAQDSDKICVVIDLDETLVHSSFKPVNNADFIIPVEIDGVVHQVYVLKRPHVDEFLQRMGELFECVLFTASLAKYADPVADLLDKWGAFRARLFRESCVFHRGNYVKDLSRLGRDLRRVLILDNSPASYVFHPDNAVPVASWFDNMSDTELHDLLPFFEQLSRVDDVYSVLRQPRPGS

Cytochrome P450 3A4 = Cytochrome P450 3A4 (Homo sapiens, UniProt P08684);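 also: CYP3A4 tested as one member of a cytochrome P450 panel screen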
[13] = NIH-3T3 fibroblast cytotoxicity, dose response, cytotoxicity control, cell-based, fluorescence, Alamar Blue, secondary assay (AID 2327); type: functional;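 also: NIH-3T3 mouse fibroblasts cultured with fluconazole at 8 µg/mL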
[14] = insulin promoter down-regulators in MIN6 cells, imaging, high-content screening, mouse beta cells (AID 1628); type: functional
[15] = system: Streptococcus sp. 'group A'; experiment: growth inhibition of control SK(-) GAS strain, dose response, counter-screen for streptokinase expression inhibitor project, luminescence, kanamycin, BacTiterGlo, confirmation (AID 1900); type: functional, organism-based
cells [16] = type: functional, cell-based; remark: listed apart in the source
[17] = cytotoxicity in MIN6 insulinoma cells, dose response, cytotoxicity control, cell-based, mouse insulinoma (AID 2122); type: functional;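 also: confirmatory high-throughput counterscreen run to flag cytotoxic compounds; mouse MIN-6 beta cells carrying an insulin promoter eGFP reporter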
[18] = C. albicans growth with fluconazole, confirmation, fluorescence, retest (AID 2467); type: functional, cell-based
[19] = cytotoxicity in HPDE-C7 cells, cell-based, fluorescence, HTS (AID 430); type: functional; settings: Homo sapiens
[20] = cytotoxicity in KRAS-transformed pancreatic duct cells, primary screen, cell-based, fluorescence, HTS (AID 431); type: functional; settings: Homo sapiens;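 also: cell line used: HPDE-C7K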
cells [21] = type: functional, cell-based; remark: listed apart in the source
[22] = biological target: T4, Serine/threonine-protein phosphatase (Candida dubliniensis (strain CD36 / CBS 7987 / NCPF 3949 / NRRLY-17841) (Yeast), UniProt B9W6M3); experiment: calcineurin pathway inhibitors in yeast reporter, dose response, S. cerevisiae, CDRE-lacZ, luminescence, secondary (AID 2388); type: functional, cell-based;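 also: yeast reporter cells carrying a calcineurin-responsive lacZ construct stimulated with calcium chloride; luminescent beta-galactosidase reporter signal in whole cells rather than isolated phosphatase activity; potency for inhibition where a drop in reporter signal means calcineurin blockade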
T4 sequence (B9W6M3 whole entry): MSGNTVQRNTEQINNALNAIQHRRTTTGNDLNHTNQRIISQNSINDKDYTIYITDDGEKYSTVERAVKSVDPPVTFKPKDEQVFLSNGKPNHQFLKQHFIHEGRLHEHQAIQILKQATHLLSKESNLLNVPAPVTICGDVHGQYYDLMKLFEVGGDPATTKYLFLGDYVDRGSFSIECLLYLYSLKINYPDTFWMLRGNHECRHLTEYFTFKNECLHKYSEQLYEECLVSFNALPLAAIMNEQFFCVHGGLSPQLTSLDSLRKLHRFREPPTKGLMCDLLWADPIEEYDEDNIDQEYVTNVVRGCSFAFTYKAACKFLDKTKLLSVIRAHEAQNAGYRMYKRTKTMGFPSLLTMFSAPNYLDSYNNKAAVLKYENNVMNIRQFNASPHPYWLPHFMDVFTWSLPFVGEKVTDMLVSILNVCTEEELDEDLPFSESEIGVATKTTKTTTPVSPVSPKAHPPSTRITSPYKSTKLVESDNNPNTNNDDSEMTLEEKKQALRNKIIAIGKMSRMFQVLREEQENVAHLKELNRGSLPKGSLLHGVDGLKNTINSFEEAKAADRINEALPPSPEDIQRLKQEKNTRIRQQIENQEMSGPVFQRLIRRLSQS

Streptococcus = experiment: Group A Streptococcus viability loss, dose response, counter-screen for streptokinase expression inhibitor project, luminescence, BacTiterGlo (AID 1915); type: functional, organism-based;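 also: potency for reduction of bacterial viability or growth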
Exodeoxyribonuclease V = Exodeoxyribonuclease V (Escherichia coli (strain K12), UniProt P04993+P07648+P08394); experiment: E. coli RecBCD inhibitors, dose response, counter-screen for AddAB inhibitor project, absorbance, V66 E. coli, mutant T4 phage (AID 492957); type: functional, cell-based, Escherichia coli str. K-12 substr. MG1655
[23] = Counterscreen for AddAB inhibitors: absorbance-based bacterial cell-based high throughput dose response assay for inhibitors of bacterial viability. [Related pubchem assays (depositor defined):AID435030, AID449728, AID449731, AID488942, AID488955, AID488956]; type: functional
HEK293 = experiment: inhibitors of LMP1-driven NF-kB reporter, dose response, cell-based, HEK293, luciferase, cherry-pick (AID 588343); type: functional; settings: Homo sapiens
[24] = biological target: Heat shock protein HSP 90-alpha (Homo sapiens, UniProt P07900); type: functional, organism-based
Vero = experiment: cells; type: functional, cell-based; settings: Chlorocebus sabaeus
[25] = biological target: ATP-dependent molecular chaperone HSP82 (Candida albicans (strain WO-1) (Yeast), UniProt C4YTQ8); experiment: loss of DOC-induced GRE-beta-galactosidase reporter signal, dose response, Hsp90 inhibitor project, S. cerevisiae, luminescence (AID 2400); type: functional, cell-based;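 also: beta-galactosidase luminescence from glucocorticoid response element reporter as proxy for Hsp90 function; inhibitor potency where signal loss means Hsp90 inhibition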
Chain of ATP-dependent molecular chaperone HSP82 (C4YTQ8 whole entry): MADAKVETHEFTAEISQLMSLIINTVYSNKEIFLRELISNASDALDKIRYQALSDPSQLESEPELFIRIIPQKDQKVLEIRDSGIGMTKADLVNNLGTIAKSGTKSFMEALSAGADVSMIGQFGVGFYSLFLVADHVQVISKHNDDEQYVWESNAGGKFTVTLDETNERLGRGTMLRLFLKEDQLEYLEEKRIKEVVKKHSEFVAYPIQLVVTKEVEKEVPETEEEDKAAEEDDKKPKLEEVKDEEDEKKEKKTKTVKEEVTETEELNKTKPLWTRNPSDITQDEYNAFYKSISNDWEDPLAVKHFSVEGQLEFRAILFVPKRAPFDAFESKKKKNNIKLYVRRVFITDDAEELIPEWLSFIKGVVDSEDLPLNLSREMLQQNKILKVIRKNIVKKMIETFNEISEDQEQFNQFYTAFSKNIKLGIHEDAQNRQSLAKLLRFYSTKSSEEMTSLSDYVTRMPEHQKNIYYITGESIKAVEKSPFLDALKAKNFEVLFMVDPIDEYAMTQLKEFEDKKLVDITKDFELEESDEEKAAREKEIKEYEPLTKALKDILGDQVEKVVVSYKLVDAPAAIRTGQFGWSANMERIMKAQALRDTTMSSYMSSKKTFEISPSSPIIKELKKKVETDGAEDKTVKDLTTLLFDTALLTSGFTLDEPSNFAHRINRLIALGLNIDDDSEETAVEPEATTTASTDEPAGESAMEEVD

Chain of Beta-adrenergic receptor kinase 1 (P25098 whole entry, the tested form may be a part): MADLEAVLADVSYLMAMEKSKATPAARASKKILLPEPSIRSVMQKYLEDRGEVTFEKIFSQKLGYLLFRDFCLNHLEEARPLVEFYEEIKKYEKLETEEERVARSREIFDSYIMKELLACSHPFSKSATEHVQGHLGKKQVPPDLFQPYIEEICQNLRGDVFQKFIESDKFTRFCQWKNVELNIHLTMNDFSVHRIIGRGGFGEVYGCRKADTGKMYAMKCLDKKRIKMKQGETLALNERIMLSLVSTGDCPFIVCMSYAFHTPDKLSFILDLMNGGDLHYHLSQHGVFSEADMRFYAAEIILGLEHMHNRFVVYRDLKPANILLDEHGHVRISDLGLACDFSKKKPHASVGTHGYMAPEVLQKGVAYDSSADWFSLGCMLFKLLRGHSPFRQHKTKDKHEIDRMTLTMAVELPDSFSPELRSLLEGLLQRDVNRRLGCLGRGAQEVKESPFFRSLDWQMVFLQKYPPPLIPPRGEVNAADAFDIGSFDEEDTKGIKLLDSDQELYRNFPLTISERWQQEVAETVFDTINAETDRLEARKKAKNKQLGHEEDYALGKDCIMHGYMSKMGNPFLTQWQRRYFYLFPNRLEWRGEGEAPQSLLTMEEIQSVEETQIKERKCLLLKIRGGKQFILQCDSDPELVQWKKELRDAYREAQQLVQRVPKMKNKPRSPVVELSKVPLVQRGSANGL
Chain of Keap1/Nrf2 (Q16236 whole entry): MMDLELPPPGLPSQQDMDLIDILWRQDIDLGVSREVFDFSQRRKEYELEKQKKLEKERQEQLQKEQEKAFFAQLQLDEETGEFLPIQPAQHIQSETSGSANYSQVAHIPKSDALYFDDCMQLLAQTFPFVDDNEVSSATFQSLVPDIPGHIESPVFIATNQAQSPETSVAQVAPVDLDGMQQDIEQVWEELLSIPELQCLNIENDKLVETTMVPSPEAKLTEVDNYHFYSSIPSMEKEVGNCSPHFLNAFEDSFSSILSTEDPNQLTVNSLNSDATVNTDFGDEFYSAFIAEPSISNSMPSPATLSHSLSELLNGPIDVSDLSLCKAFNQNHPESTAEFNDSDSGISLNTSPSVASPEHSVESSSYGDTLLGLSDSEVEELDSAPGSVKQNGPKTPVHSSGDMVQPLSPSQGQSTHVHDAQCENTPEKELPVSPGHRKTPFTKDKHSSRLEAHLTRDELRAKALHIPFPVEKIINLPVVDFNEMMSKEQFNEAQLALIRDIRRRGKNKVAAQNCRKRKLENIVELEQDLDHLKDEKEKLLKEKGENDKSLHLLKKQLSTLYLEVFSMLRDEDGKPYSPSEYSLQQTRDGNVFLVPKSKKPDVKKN
Chain of Keap1/Nrf2 (Q14145 whole entry): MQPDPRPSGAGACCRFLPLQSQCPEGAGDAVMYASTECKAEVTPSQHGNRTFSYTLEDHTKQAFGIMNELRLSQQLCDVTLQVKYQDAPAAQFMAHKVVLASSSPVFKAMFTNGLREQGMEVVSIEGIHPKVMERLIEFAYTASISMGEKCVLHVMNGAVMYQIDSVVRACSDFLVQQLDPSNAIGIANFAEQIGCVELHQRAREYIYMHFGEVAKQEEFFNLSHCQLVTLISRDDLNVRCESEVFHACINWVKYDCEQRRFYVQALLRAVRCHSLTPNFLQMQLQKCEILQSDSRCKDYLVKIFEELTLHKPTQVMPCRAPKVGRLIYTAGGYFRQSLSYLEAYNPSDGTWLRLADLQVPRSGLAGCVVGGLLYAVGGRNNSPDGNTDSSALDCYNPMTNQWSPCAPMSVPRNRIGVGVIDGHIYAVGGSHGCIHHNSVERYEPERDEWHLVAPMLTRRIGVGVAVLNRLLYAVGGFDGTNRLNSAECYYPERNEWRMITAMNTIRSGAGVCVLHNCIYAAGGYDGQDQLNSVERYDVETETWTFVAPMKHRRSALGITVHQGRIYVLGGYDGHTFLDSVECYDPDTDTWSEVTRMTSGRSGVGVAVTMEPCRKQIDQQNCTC
Chain of Paired box protein Pax-8 (Q06710 whole entry): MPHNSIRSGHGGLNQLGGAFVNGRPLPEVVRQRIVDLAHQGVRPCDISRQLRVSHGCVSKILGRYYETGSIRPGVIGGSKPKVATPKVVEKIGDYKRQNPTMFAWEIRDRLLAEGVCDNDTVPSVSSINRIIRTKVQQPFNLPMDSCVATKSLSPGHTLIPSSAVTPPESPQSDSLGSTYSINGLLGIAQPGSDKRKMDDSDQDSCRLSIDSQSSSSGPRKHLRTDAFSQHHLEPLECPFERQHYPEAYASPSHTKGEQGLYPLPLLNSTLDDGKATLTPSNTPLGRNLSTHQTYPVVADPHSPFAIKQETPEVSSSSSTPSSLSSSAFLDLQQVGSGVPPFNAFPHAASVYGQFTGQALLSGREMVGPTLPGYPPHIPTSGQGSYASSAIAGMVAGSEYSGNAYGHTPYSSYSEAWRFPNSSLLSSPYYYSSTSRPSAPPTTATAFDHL
Chain of Cytochrome P450 3A4 (P08684 whole entry): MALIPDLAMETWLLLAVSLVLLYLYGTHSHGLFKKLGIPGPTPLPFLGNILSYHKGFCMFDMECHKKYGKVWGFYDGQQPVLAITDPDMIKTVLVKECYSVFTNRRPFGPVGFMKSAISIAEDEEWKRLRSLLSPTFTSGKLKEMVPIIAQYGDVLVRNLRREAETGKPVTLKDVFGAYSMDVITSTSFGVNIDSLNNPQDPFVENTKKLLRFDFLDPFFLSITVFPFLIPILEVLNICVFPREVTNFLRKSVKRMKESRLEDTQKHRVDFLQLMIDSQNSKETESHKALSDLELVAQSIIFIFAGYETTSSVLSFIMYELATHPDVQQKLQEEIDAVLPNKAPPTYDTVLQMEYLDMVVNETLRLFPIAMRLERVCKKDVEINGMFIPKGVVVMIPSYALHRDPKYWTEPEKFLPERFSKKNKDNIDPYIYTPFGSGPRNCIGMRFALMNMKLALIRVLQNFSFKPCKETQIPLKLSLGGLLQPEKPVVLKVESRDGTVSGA

## O=C(c1ccc(Br)cc1)c1cc([N+](=O)[O-])ccc1N1CCCCC1
[1]
  EC50: 623 nM (active)
[2]
  EC50: 892 nM (active)
BJ [3]
  EC50: 697 nM (active)
Cells [4]
  EC50: 1.49 µM (active)
[5]
  EC50: < 100 nM (active)
BJ [6]
  EC50: 1.12 µM (inconclusive)
BJ [7]
  EC50: 464 nM (active)
[8]
  EC50: 694 nM (active)
[9]
  EC50: > 12 µM (inconclusive)
Jurkat
  IC50: > 80 µM (inactive)
[10]
  IC50: > 80 µM (inactive)
Paired box protein Pax-8
  AC50: 2.73 µM (active)
Cytochrome P450 1A2
  AC50: 2 µM (inconclusive)

## Cc1nc(Cl)c2c(n1)N=C1CCCC(O)=C1O2
ORF 73
  AC50: 8.8 µM (active)
Keap1/Nrf2
  AC50: 15.1 µM (active)

## O=C(CCS(=O)(=O)c1ccc(Br)cc1)NCCc1ccc(Cl)cc1
[11]
  EC50: 7.06 µM (active)

## O=C(CCS(=O)(=O)c1ccc(Br)cc1)NCc1cccs1
[11]
  EC50: 1.79 µM (active)
[12]
  IC50: 48 µM (active)

## COCC(=O)N1CCC2(CC1)CN(C(c1ccccc1)c1ccccc1)C2
Cytochrome P450 3A4
  AC50: inconclusive

## Oc1c(C(Nc2nc3ccccc3s2)c2ccco2)ccc2cccnc12 (stereo unspecified)
[13]
  EC50: 12.9 µM (active)
[14]
  IC50: 1.21 µM (active)
[15]
  EC50: 1.76 µM (active)
Cells [16]
  EC50: 9.09 µM (active)
[17]
  IC50: 896 nM (active)
[18]
  EC50: 854 nM (active)
[19]
  EC50: 8.6 µM (active)
[20]
  EC50: 6.19 µM (active)
Cells [21]
  EC50: > 350 µM (not active)
[22]
  EC50: > 180 µM (inactive)
Streptococcus
  EC50: 5.98 µM (active)
Exodeoxyribonuclease V
  IC50: > 119 µM (inactive)
[23]
  IC50: > 119 µM (inactive)
HEK293
  AC50: 6.93 µM (active)
[24]
  AC50: 24.1 µM (active)
Vero
  IC50: > 25 µM (active)
[25]
  EC50: 33.4 µM (active)
